Legend:
rat P2X3 receptor = target: T1, rat P2X3 receptor (Rattus norvegicus, UniProt P49654); experiment: P2X3 FLIPR (Fluorometric Imaging Plate Reader) assay; format: cell-based; settings: CHO-K1 cells transfected with rat P2X3, agonist α,β-meATP 1 μM, FLIPR calcium fluorescence; for Ki: read-out: pKi P2X3 (converted)
T1 construct: expressed in transfected cells; host or cells: CHO-K1
T1 sequence (P49654 1-397): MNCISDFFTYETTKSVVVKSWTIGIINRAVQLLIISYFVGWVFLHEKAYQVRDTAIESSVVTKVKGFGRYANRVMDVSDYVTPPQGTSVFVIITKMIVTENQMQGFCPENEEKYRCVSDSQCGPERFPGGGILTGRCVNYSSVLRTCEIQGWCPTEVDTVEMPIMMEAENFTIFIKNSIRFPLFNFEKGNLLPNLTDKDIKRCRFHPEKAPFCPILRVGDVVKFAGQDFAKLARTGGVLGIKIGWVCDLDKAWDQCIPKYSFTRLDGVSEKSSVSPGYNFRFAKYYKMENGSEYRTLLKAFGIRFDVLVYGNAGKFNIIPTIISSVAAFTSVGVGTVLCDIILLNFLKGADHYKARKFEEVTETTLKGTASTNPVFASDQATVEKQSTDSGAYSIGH
Experimental: (§1) CHO-K1 cells were transfected with cloned rat P2X3 or human P2X2/3 receptor subunits and passaged in flasks. 18-24 hours before the FLIPR experiment, cells were released from their flasks, centrifuged, and resuspended in nutrient medium at 2.5×10^5 cells/ml. The cells were aliquoted into black-walled 96-well plates at a density of 50,000 cells/well and incubated overnight in 5% CO2 at 37° C. On the day of the experiment, cells were washed in FLIPR buffer (calcium- and magnesium-free Hank's balanced salt solution, 10 mM HEPES, 2 mM CaCl2, 2.5 mM probenecid; FB). Each well received 100 μl FB and 100 μl of the fluorescent dye Fluo-3 AM [2 μM final conc.]. After a 1 hour dye loading incubation at 37° C., the cells were washed 4 times with FB, and a final 75 μl/well FB was left in each well.
(§2) Test compounds (dissolved in DMSO at 10 mM and serially diluted with FB) or vehicle were added to each well (25 μl of a 4× solution) and allowed to equilibrate for 20 minutes at room temperature. The plates were then placed in the FLIPR and a baseline fluorescence measurement (excitation at 488 nm and emission at 510-570 nm) was obtained for 10 seconds before a 100 μl/well agonist or vehicle addition. The agonist was a 2× solution of α,β-meATP producing a final concentration of 1 μM (P2X3) or 5 μM (P2X2/3). Fluorescence was measured for an additional 2 minutes at 1 second intervals after agonist addition. A final addition of ionomycin (5 μM, final concentration) was made to each well of the FLIPR test plate to establish cell viability and maximum fluorescence of dye-bound cytosolic calcium. Peak fluorescence in response to the addition of α,β-meATP (in the absence and presence of test compounds) was measured and inhibition curves generated using nonlinear regression. PPADS, a standard P2X antagonist, was used as a positive control.

human P2X2/3 receptor = target: T2, human P2X2/3 receptor (Homo sapiens, UniProt P56373+Q9UBL9); experiment: P2X2/3 FLIPR (Fluorometric Imaging Plate Reader) assay; format: cell-based; settings: CHO-K1 cells transfected with human P2X2/3; agonist α,β-meATP 5 μM; FLIPR calcium fluorescence; read-out: pKi P2X2/3 (converted)
T2 construct: expressed in transfected cells; host or cells: CHO-K1
T2 sequence (Q9UBL9 1-471): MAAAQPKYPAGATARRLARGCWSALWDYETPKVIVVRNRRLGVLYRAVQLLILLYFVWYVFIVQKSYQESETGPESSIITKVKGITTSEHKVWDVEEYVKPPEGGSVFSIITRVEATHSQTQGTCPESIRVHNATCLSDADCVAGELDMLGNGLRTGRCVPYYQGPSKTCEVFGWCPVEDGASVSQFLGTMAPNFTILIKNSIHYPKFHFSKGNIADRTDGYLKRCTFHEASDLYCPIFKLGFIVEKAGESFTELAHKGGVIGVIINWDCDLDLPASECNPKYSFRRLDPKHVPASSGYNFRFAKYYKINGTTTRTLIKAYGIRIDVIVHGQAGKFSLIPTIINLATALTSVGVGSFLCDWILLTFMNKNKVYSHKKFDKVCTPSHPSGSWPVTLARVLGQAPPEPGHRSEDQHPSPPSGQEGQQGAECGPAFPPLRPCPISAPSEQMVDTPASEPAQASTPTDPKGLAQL
T2 sequence (P56373 1-397): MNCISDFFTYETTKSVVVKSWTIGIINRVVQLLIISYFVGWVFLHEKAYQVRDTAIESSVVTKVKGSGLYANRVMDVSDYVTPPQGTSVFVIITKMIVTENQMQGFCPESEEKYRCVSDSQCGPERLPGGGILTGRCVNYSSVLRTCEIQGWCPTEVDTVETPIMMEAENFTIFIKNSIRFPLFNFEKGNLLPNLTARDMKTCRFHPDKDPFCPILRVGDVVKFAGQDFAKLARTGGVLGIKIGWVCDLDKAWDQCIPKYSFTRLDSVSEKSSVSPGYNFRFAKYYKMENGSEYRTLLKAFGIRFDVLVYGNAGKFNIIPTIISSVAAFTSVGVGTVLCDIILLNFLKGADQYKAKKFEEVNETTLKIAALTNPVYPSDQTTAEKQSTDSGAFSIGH
Experimental: as §1, §2

Ki (rat P2X3 receptor) [µM] | Ki (human P2X2/3 receptor) [µM] | pKi P2X3 (rat P2X3 receptor) | SMILES
0.00398 | 0.0204 |  | Cc1ccc(-c2cc(C(=O)NCc3cnc(C)cn3)cc(N3C(=O)OC[C@H]3C(C)C)c2)nc1 [Compound 11, 3-((R)-4-Isopropyl-2-oxo-oxazolidin-3-yl)-N-(5-methyl-pyrazin-2-ylmethyl)-5-(5-methyl-pyridin-2-yl)-benzamide]
1.02 |  |  | Cc1ccc(-c2cc(C(=O)NCc3cnc(C)cn3)cc(N3C(=O)OC[C@@H]3C(C)C)c2)cc1 [Compound 44, 5-((S)-4-Isopropyl-2-oxo-oxazolidin-3-yl)-4′-methyl-biphenyl-3-carboxylic acid (5-methyl-pyrazin-2-ylmethyl)-amide]
0.00891 | 0.123 |  | Cc1ccc(-c2cc(C(=O)NC3CC3)cc(N3C(=O)OC[C@H]3C(C)C)c2)c(F)c1 [Compound 49, 2′-Fluoro-5-((R)-4-isopropyl-2-oxo-oxazolidin-3-yl)-4′-methyl-biphenyl-3-carboxylic acid cyclopropylamide]
1.48 |  |  | Cc1ccc(-c2cc(C(=O)NC3CC3)cc(N3C(=O)OC[C@@H]3C(C)C)c2)cc1 [Compound 42, 5-((S)-4-Isopropyl-2-oxo-oxazolidin-3-yl)-4′-methyl-biphenyl-3-carboxylic acid cyclopropylamide]
0.00525 | 0.562 |  | COC[C@@H](C)NC(=O)c1cc(-c2ccc(C)cn2)cc(N2C(=O)OC[C@H]2C(C)C)c1 [Compound 7, 3-((R)-4-Isopropyl-2-oxo-oxazolidin-3-yl)-N-((R)-2-methoxy-1-methyl-ethyl)-5-(5-methyl-pyridin-2-yl)-benzamide]
0.263 | 7.59 |  | Cc1ccc(-c2cc(C(=O)NC(C)c3cnccn3)cc(N3C(=O)OC[C@@H]3C(C)C)c2)cc1 (stereo partly drawn) [Compound 45, 5-((S)-4-Isopropyl-2-oxo-oxazolidin-3-yl)-4′-methyl-biphenyl-3-carboxylic acid (1-pyrazin-2-yl-ethyl)-amide]
2.57 |  |  | Cc1ccc(-c2cc(C(=O)N[C@@H](C)CO)cc(N3C(=O)OC[C@@H]3C(C)C)c2)cc1 [Compound 43, 5-((S)-4-Isopropyl-2-oxo-oxazolidin-3-yl)-4′-methyl-biphenyl-3-carboxylic acid ((S)-2-hydroxy-1-methyl-ethyl)-amide]
0.575 |  |  | COCC(C)NC(=O)c1cc(-c2ccc(C)cc2)cc(N2C(=O)CCC2C)c1 (stereo not shown) [Compound 36, 4′-Methyl-5-(2-methyl-5-oxo-pyrrolidin-1-yl)-biphenyl-3-carboxylic acid (2-methoxy-1-methyl-ethyl)-amide]

The next lines start with the compound.

SMILES | Ki (rat P2X3 receptor) [µM] | Ki (human P2X2/3 receptor) [µM] | pKi P2X3 (rat P2X3 receptor)
Cc1ccc(-c2cc(C(=O)NC(C)c3cnccn3)cc(N3C(=O)OCC3(C)C)c2)nc1 (stereo not shown) [Compound 20, 3-(4,4-Dimethyl-2-oxo-oxazolidin-3-yl)-5-(5-methyl-pyridin-2-yl)-N-(1-pyrazin-2-yl-ethyl)-benzamide] | 0.00631 | 0.123 | 
CCC[C@@H]1COC(=O)N1c1cc(C(=O)NC(C)c2cnccn2)cc(-c2ccc(C)cn2)c1 (stereo partly drawn) [Compound 23, 3-(5-Methyl-pyridin-2-yl)-5-((R)-2-oxo-4-propyl-oxazolidin-3-yl)-N-(1-pyrazin-2-yl-ethyl)-benzamide] | 0.0851 |  | 
Cc1ccc(-c2cc(C(=O)NC(C)c3cnccn3)cc(N3C(=O)Cc4ccccc43)c2)cc1 (stereo not shown) [Compound 54, 4′-Methyl-5-(2-oxo-2,3-dihydro-indol-1-yl)-biphenyl-3-carboxylic acid (1-pyrazin-2-yl-ethyl)-amide] | 0.02 | 0.112 | 
Cc1ccc(-c2cc(C(=O)N[C@@H](C)CO)cc(N3C(=O)OCC3(C)C)c2)nc1 [Compound 25, 3-(4,4-Dimethyl-2-oxo-oxazolidin-3-yl)-N-((S)-2-hydroxy-1-methyl-ethyl)-5-(5-methyl-pyridin-2-yl)-benzamide] | 0.0282 |  | 
Cc1ccc(-c2cc(C(=O)NC(C)c3cnccn3)cc(N3C(=O)OC[C@H]3C)c2)nc1 (stereo partly drawn) [Compound 15, 3-((R)-4-Methyl-2-oxo-oxazolidin-3-yl)-5-(5-methyl-pyridin-2-yl)-N-(1-pyrazin-2-yl-ethyl)-benzamide] | 1 |  | 
Cc1ccc(-c2cc(C(=O)NC(C)c3cnccn3)cc(-n3c(=O)[nH]c4ccccc43)c2)nc1 (stereo not shown) [Compound 4, 3-(5-Methyl-pyridin-2-yl)-5-(2-oxo-2,3-dihydro-benzoimidazol-1-yl)-N-(1-pyrazin-2-yl-ethyl)-benzamide] | 0.00407 | 0.191 | 
Cc1ccc(-c2cc(C(=O)NC(C)c3cnccn3)cc(-n3c(=O)oc4ccccc43)c2)cc1 (stereo not shown) [Compound 50, 4′-Methyl-5-(2-oxo-benzooxazol-3-yl)-biphenyl-3-carboxylic acid (1-pyrazin-2-yl-ethyl)-amide] | 0.0123 | 0.0263 | 
Cc1ccc(-c2cc(C(=O)N[C@@H](C)CO)cc(N3C(=O)CCC3C)c2)nc1 (stereo partly drawn) [Compound 26, N-((S)-2-Hydroxy-1-methyl-ethyl)-3-(2-methyl-5-oxo-pyrrolidin-1-yl)-5-(5-methyl-pyridin-2-yl)-benzamide] | 0.912 |  | 
Cc1ccc(-c2cc(C(=O)N[C@@H](C)CO)cc(-n3c(=O)oc4ccccc43)c2)nc1 [Compound 3, N-((S)-2-Hydroxy-l-methyl-ethyl)-3-(5-methyl-pyridin-2-yl)-5-(2-oxo-benzooxazol-3-yl)-benzamide] | 0.00331 | 0.234 | 
Cc1ccc(-c2cc(C(=O)NCc3cnc(C)cn3)cc(N3C(=O)OCC3(C)C)c2)nc1 [Compound 21, 3-(4,4-Dimethyl-2-oxo-oxazolidin-3-yl)-N-(5-methyl-pyrazin-2-ylmethyl)-5-(5-methyl-pyridin-2-yl)-benzamide] | 0.00355 |  | 
CCC[C@@H]1COC(=O)N1c1cc(C(=O)N[C@@H](C)CO)cc(-c2ccc(C)cn2)c1 [Compound 22, N-((S)-2-Hydroxy-1-methyl-ethyl)-3-(5-methyl-pyridin-2-yl)-5-((R)-2-oxo-4-propyl-oxazolidin-3-yl)-benzamide] | 3.8 |  | 
COCC(C)NC(=O)c1cc(-c2ccc(C)cc2)cc(N2CCNC2=O)c1 (stereo not shown) [Compound 52, 4′-Methyl-5-(2-oxo-imidazolidin-1-yl)-biphenyl-3-carboxylic acid (2-methoxy-1-methyl-ethyl)-amide] | 5.25 |  | 
COCC(C)NC(=O)c1cc(-c2ccc(C)cc2)cc(N2CCNC2=O)c1 (stereo not shown) [Compound 35, 4′-Methyl-5-(2-oxo-imidazolidin-1-yl)-biphenyl-3-carboxylic acid (2-methoxy-1-methyl-ethyl)-amide] |  |  | 5.28
CCC[C@@H]1COC(=O)N1c1cc(C(=O)NCc2cnc(C)cn2)cc(-c2ccc(C)cn2)c1 [Compound 24, N-(5-Methyl-pyrazin-2-ylmethyl)-3-(5-methyl-pyridin-2-yl)-5-((R)-2-oxo-4-propyl-oxazolidin-3-yl)-benzamide] | 0.166 |  | 

— US8093275B2, “Oxazolone and pyrrolidinone-substituted pryidine amides as P2X3 and P2X2/3 antagonists” (Roche Palo Alto LLC, priority 2009, dated 2012)
